Columns and labels:
human sensory panel [1] = test: Human sensory panel, sweet taste versus reference water solution containing 4% sucrose; format: in vivo; conditions: 20 trained panelists, scale −5 (strong masking) to 5 (strong enhancing), 0 = reference water solution containing 4% sucrose
Text: (§1) Certain HMF compounds were tasted by a human sensory panel to assess their ability to reduce bitterness, reduce astringency, and enhance sweetness. The panel consisted of 20 trained panelists evaluating the samples at 1 ppm, 5 ppm, or 10 ppm for taste properties (sweet, bitter, or astringent) on a scale of −5 to 5 (−5 denoted strong masking effect and 5 denoted strong enhancing effect, 0 being the intensity of a reference water solution containing 4% sucrose or 10 ppm mixture of Limonin, Naringin and Nomilin) The results are set forth in Table 2. The composition numberings (“Cpn”) are set forth above in Example 1.

human sensory panel [2] = test: Human sensory panel, bitter and astringent taste versus reference water solution with 10 ppm mixture of Limonin, Naringin and Nomilin; format: in vivo; conditions: 20 trained panelists, scale −5 (strong masking) to 5 (strong enhancing); for Astringency: 0 = reference water solution; for Bitterness: 0 = reference water solution with 10 ppm mixture of Limonin, Naringin and Nomilin
Text: as §1

panel of 8 experts = test: Expert panel, bitter and astringent taste in coffee; format: in vivo, human; conditions: 10 ppm, scale −5 (strong masking) to 5 (strong enhancing), 0 = reference application in coffee
Text: A panel consisted in 8 experts evaluating the samples at 10 ppm for taste properties (bitter and astringent) on a scale of −5 to 5 (−5 denoted strong masking effect and 5 denoted strong enhancing effect, 0 being the intensity of a reference application in coffee).

Structure (SMILES)	Sweetness (human sensory panel [1]; 10 ppm)	Astringency (human sensory panel [2]; 10 ppm)	Bitterness (human sensory panel [2]; 10 ppm)	further results
COc1ccc(-c2cc(=O)c3c(OC)c(OC)c(OC)cc3o2)cc1O [Cpd 107, 3′-hydroxy-5,6,7,4′-tetramethoxyflavone]				Sweetness (human sensory panel [1]; 1 ppm): 0.50; Astringency (human sensory panel [2]; 1 ppm): 0.00; Bitterness (human sensory panel [2]; 1 ppm): 0.08
COc1c(OC)c(OC)c2c(=O)cc(-c3ccc(O)cc3)oc2c1OC [Cpd 106, 4′-hydroxy-5,6,7,8-tetramethoxyflavone]				Sweetness (human sensory panel [1]; 5 ppm): 0.25; Astringency (human sensory panel [2]; 5 ppm): −0.30; Bitterness (human sensory panel [2]; 5 ppm): −2.00
COc1cc(-c2cc(=O)c3c(OC)c(OC)c(OC)c(OC)c3o2)ccc1O [Cpd 103, 4′-hydroxy-5,6,7,8,3′-pentamethoxyflavone]	0.17	−0.67	−1.17	
COc1cc(-c2cc(=O)c3c(OC)c(OC)c(OC)cc3o2)ccc1O [Cpd 101, 4′-hydroxy-5,6,7,3′-tetramethoxyflavone]	0.58	−0.92	−0.92	
COc1ccc(-c2cc(=O)c3c(OC)c(OC)c(OC)c(OC)c3o2)cc1O [Cpd 109, 3′-hydroxy-5,6,7,8,4′-pentamethoxyflavone]	0.03	−1.80	−3.51	Astringency (panel of 8 experts): 0.60; Bitterness (panel of 8 experts): −1.80
COc1cc2oc(-c3ccc(O)cc3)cc(=O)c2c(OC)c1OC [Cpd 104, 4′-Hydroxy-5,6,7-trimethoxyflavone]	0.08	−0.33	−1.00	

From patent publication US20240114939A1, “HYDROXY- AND METHOXY-SUBSTITUTED FLAVONES AND THEIR USE” (Firmenich SA, priority 2021, published 2024)
